Reference: patent US10428124B2, “Timothy grass allergens and methods and uses for immune response modulation” (LA JOLLA INSTITUTE FOR ALLERGY AND IMMUNOLOGY, priority 2012, dated 2019)

Key:
[1] = test system: PBMCs from TG allergic donors; assay: IL-5 ELISPOT of TG extract-expanded PBMCs from TG allergic donors (peptide pools, single peptides, TG extract); type: cell-based, human
Procedure: Each donor was recruited following Institutional Review Board approval (Federal Wide Assurance number 00000032) and informed consent and assigned a study identification number. Donors were tested for allergen reactivity by skin prick tests to extracts from 32 common allergens. TG allergic donors were identified as having a skin reaction with a wheal of 5 mm in diameter to TG and a clinical history consistent with seasonal grass pollen allergy. Donors that had received specific immunotherapy were excluded. Non-allergic donors were identified as having negative skin prick tests to all allergens and no clinical history of allergy.
PBMCs were isolated by density gradient centrifugation from one unit of blood (˜450 ml) and cryo-preserved as described previously (12). For in vitro expansions, PBMCs were thawed and cultured in RPMI 1640 (Ω Scientific, Tarzana, Calif.) supplemented with 5% human AB serum (Cellgro, Herndon, Va.) at a density of 2×10^6 cells/ml in 24-well plates (BD Biosciences, San Jose, Calif.) and stimulated with TG pollen extract ([…]) (Greer, Lenoir, N.C.). Cells were kept at 37° C., 5% CO2 and additional IL-2 and IL-7 (10 U/ml, eBioscience, San Diego, Calif.) was added every 3 d after initial antigenic stimulation. On day 14, cells were harvested and screened for reactivity against TG-specific peptide pools (16-25 peptides/pool, averaging 20 peptides/pool). On day 17, peptides from positive pools were tested individually to identify the reactive epitopes.
The production of IL-5 from cultured PBMCs in response to antigen stimulation was measured by ELISPOT as described previously (12). Briefly, 1×10^5 cells/well were incubated with peptide, peptide pool or TG extract (10 μg/ml, 5 μg/ml and 50 μg/ml, respectively). After 24 h, cells were removed and plates were incubated with 2 μg/ml biotinylated anti-human IL-5 Ab (Mabtech) at 37° C. After 2 h, plates were washed and avidin-peroxidase-complex was added (Vector Laboratories, Burlingame, Calif.) for 1 h at RT. Peroxidase-conjugated spots were developed with 3-amino-9-ethylcarvazole solution (Sigma-Aldrich, St. Louis, Mo.). Criteria for peptide pool positivity were 100 SFCs/106 PBMCs, p 0.05, and a stimulation index (SI) 2. Criteria for individual peptides were the same except a minimum of 20 SFCs was counted as positive.

human IgE = assay: 2D gel immunoblot of TG extract with serum pool from 8 TG-allergic donors, IgE reactivity; type: binding; conditions: for Antibody reactvity IgE/IgG: IgE: E− = not IgE reactive
Procedure: (§1) 2D DIGE (Difference Gel Electrophoresis) analysis. The complete 2D DIGE analysis was performed by Applied Biomics (Hayward, Calif., US). Briefly, TG extract was run on two 2D gels (3-10 pH range, 12% SDS-acrylamide gel), one was Coomassie blue stained, the other was blotted onto a nitrocellulose membrane. The membrane was then incubated with 5% dried milk in PBS/0.05% Tween to block non-specific binding and subsequently probed with a serum pool from 8 TG-allergic individuals at a dilution of 1:250. IgE and IgG binding was detected using goat anti-human IgE and rabbit anti-human IgG (Sigma-Aldrich, St. Louis, Mo.) and visualized using Cy2-conjugated donkey anti-goat IgG and Cy5-conjugated donkey […] IgG antibodies (Biotium, Hayward, Calif.).
(§2) Mass spectral protein identification was performed by Applied Biomics (Hayward, Calif., US). Briefly, spots of interest were selected from the 2D blot and the corresponding spots were identified on the stained SDS gel and cut out, washed several times to remove staining dye and other inhibitory chemicals. The spots were then dried to absorb maximum digestion buffer. Dried 2D gel spots were rehydrated in digestion buffer containing trypsin. Proteins were digested in-gel at 37° C. and then extracted from the gel with TFA extraction buffer. Subsequently the peptides were desalted using C-18 Zip-tips (Millipore) and mixed with CHCA matrix (alpha-cyano-4-hydroxycinnamic acid) and spotted into wells of a MALDI plate. Mass spectra of the peptides in each sample were obtained using an Applied Biosystems Proteomics Analyzer. The spectra were compared to the amino acid sequences encoded by putative ORFs from the de novo assembled TG pollen transcripts. […] The amino acid sequences encoded by these ORFs were clustered using a custom script at a sequence similarity threshold of 90% to group together highly similar protein sequences. These sequences are encoded by different transcripts from the current assembly, which could arise from splice variants, allelic variation between cells of TG pollen, and from gene families with multiple members. Amino acid sequences that form one cluster are assigned one putative protein ID (Table 1).

human IgG = assay: 2D gel immunoblot of TG extract with serum pool from 8 TG-allergic donors, IgG reactivity; type: binding; conditions: for Antibody reactvity IgE/IgG: IgG: G+ = IgG reactive, G− = not
Procedure: as §1, §2

[2] = test system: PBMCs from TG allergic donors; assay: IFNg ELISPOT of TG extract-expanded PBMCs from TG allergic donors (single peptides); type: cell-based, human; conditions: for Total response IFNg SFC: TG allergic patients; for Total response IFNg Events: number of positive response events in TG allergic patients
[3] = test system: PBMCs from TG allergic donors; assay: IFNg ELISPOT of TG extract-expanded PBMCs (single peptides); type: cell-based, human; conditions: for Total response IFNg SFC: 15-mer peptide; for Total response IFNg Events: number of positive response events to the 15-mer peptide
[4] = test system: PBMCs from TG allergic donors; assay: IFNg ELISPOT of TG extract-expanded PBMCs from TG allergic donors (single peptides); type: cell-based, human; conditions: T cell recognition in TG allergic patients; for Total response IFNg Events: number of response events
[5] = test system: PBMCs from TG allergic donors; assay: as above; type: cell-based, human; conditions: for Total response IFNg Events: number of positive response events
[6] = test system: PBMCs from TG allergic donors; assay: as above; type: cell-based, human; conditions: T cell recognition in TG allergic patients; for Total response IFNg Events: number of positive events
[7] = number of positive response events in TG allergic patients
[8] = number of positive response events to the 15-mer peptide
[9] = reactivity of the parent antigen (TG protein) from which the peptide is predicted, E+/E−
[10] = reactivity of the parent antigen
[11] = reactivity of the parent antigen (TG protein) from which the peptide is predicted, G+/G−
[12] = T cell recognition in TG allergic patients, number of response events
[13] = IgE reactivity (E+/E−) of the source antigen of the peptide
[14] = IgG reactivity (G+/G−) of the source antigen of the peptide
[15] = IL-5, number of positive response events
[16] = T cell recognition in TG allergic patients
[17] = E+ / E− part of the cell, reactivity of the parent antigen
[18] = G+ / G− part of the cell, reactivity of the parent antigen
[19] = T cell recognition in TG allergic patients, number of positive events
[20] = IgE reactivity of the parent TG antigen
[21] = IgG reactivity of the parent TG antigen

Substance	Total response IL-5 Events [1, 7]	Antibody reactivity IgE/IgG: IgE (human IgE; [9])	Antibody reactivity IgE/IgG: IgG (human IgG; [11])	Total response IFNg Events [2]	Total response IL-5 Events [1, 15]	Antibody reactvity IgE/IgG (IgE part) (human IgE; [17])	Antibody reactvity IgE/IgG (IgG part) (human IgG; [18])	Total response IFNg Events [5]	Total response IFNg SFC [5] [SFC]	further results
64111 (KNPLKFDNTYFTELL; Phleum pratense) [Peptide 64111]	1	E−	G−	1	–	–	–	–	–	Total response IL-5 SFC ([1]; 15-mer peptide): 100 SFC; Total response IL-5 SFC ([1]; TG allergic patients): 100 SFC; Total response IL-5 Events [1, 8]: 1; Antibody reactvity IgE/IgG: IgE (human IgE; [10]): E−; Antibody reactvity IgE/IgG: IgG (human IgG; [10]): G−; Total response IFNg SFC [2]: 47 SFC; Total response IFNg SFC [3]: 47 SFC; Total response IFNg Events [3]: 1
375 (EEAASTLPGLSSSTL; Phleum pratense) [Peptide 375]	–	–	–	–	–	–	–	–	–	Total response IL-5 Events [1, 12]: 0; Antibody reactivity IgE/IgG: IgE (human IgE; [13]): E−; Antibody reactivity IgE/IgG: IgG (human IgG; [14]): G+; Total response IFNg Events [4]: 0
30285 (VFNDDIQGTASVVLA; Phleum pratense) [Peptide 30285]	–	–	–	–	1	E+	G−	0	–	Total response IL-5 SFC ([1]; IL-5, total SFC): 67 SFC; Total response IL-5 SFC [1, 16]: 67 SFC; Total response IL-5 Events [1, 12]: 1; Antibody reactivity IgE/IgG: IgE (human IgE; [13]): E+; Antibody reactivity IgE/IgG: IgG (human IgG; [14]): G−; Total response IFNg Events [4]: 0
26138 (KVINDRFGIVEGLMT; Phleum pratense) [Peptide 26138]	–	–	–	–	0	E+	G−	1	37	Total response IL-5 Events [1, 12]: 0; Antibody reactivity IgE/IgG: IgE (human IgE; [13]): E+; Antibody reactivity IgE/IgG: IgG (human IgG; [14]): G−; Total response IFNg SFC [4]: 37 SFC; Total response IFNg Events [4]: 1
6119 (KVSKVLNTYIFLLYL; Phleum pratense) [Peptide 6119]	1	E−	G−	0	–	–	–	–	–	Total response IL-5 SFC ([1]; 15-mer peptide): 27 SFC; Total response IL-5 SFC ([1]; TG allergic patients): 27 SFC; Total response IL-5 Events [1, 8]: 1; Antibody reactvity IgE/IgG: IgE (human IgE; [10]): E−; Antibody reactvity IgE/IgG: IgG (human IgG; [10]): G−; Total response IFNg Events [3]: 0
141 (LLGYLLWVVAIRRPR; Phleum pratense) [Peptide 141]	–	–	–	–	1	E+	G+	0	–	Total response IL-5 SFC ([1]; IL-5, total SFC): 110 SFC; Total response IL-5 SFC [1, 16]: 110 SFC; Total response IL-5 Events [1, 19]: 1; Antibody reactvity IgE/IgG (IgE part) (human IgE; [20]): E+; Antibody reactvity IgE/IgG (IgG part) (human IgG; [21]): G+; Total response IFNg Events [6]: 0
411 (SSTRGWCSRRRAGRG; Phleum pratense) [Peptide 411]	0	E−	G+	0	0	E−	G+	0	–	–
455 (KRPPRCCQDLVVLPL; Phleum pratense) [Peptide 455]	0	E−	G+	0	–	–	–	–	–	–
5621 (KIASFLDPDGWKVVL; Phleum pratense) [Peptide 5621]	0	E−	G−	1	–	–	–	–	–	Total response IL-5 Events [1, 8]: 0; Antibody reactvity IgE/IgG: IgE (human IgE; [10]): E−; Antibody reactvity IgE/IgG: IgG (human IgG; [10]): G−; Total response IFNg SFC [2]: 343 SFC; Total response IFNg SFC [3]: 343 SFC; Total response IFNg Events [3]: 1
48269 (YAVGQKIKAYLEAES; Phleum pratense) [Peptide 48269]	0	E−	G+	1	0	E−	G+	1	297	Total response IFNg SFC [2]: 297 SFC
527 (TVSDEYLAAVAKARR; Phleum pratense) [Peptide 527]	–	–	–	–	0	E+	G+	1	73	Total response IL-5 Events [1, 19]: 0; Antibody reactvity IgE/IgG (IgE part) (human IgE; [20]): E+; Antibody reactvity IgE/IgG (IgG part) (human IgG; [21]): G+; Total response IFNg SFC [6]: 73 SFC; Total response IFNg Events [6]: 1
350 (LKDGSTYSFRFSFIV; Phleum pratense) [Peptide 350]	–	–	–	–	1	E+	G+	0	–	Total response IL-5 SFC ([1]; IL-5, total SFC): 20 SFC; Total response IL-5 SFC [1, 16]: 20 SFC; Total response IL-5 Events [1, 19]: 1; Antibody reactvity IgE/IgG (IgE part) (human IgE; [20]): E+; Antibody reactvity IgE/IgG (IgG part) (human IgG; [21]): G+; Total response IFNg Events [6]: 0
83 (TIVASGIENMKIFTR; Phleum pratense) [Peptide 83]	–	–	–	–	0	E+	G+	1	293	Total response IL-5 Events [1, 19]: 0; Antibody reactvity IgE/IgG (IgE part) (human IgE; [20]): E+; Antibody reactvity IgE/IgG (IgG part) (human IgG; [21]): G+; Total response IFNg SFC [6]: 293 SFC; Total response IFNg Events [6]: 1
4269 (GVIAGLNVLRIINEP; Phleum pratense) [Peptide 4269]	0	E−	G+	1	0	E−	G+	1	33	Total response IFNg SFC [2]: 33 SFC
